Measured values taken from patent EP3046573B1, “AMYLIN ANALOGUES” (Zealand Pharma A/S, priority 2013, dated 2015).
Numbered stars: 1 amine (or outer) side, 2 acyl side, 3 side chain; on linkers, the order of the positions; unused ones are H or OH. Bridge positions count the residues as written; N and C are the ends. Square brackets hold non-standard residues; d marks the D form. Peptide text beside a SMILES is read from it. * marks the point of attachment. C20 diacid = O=C(O)CCCCCCCCCCCCCCCCCCC(=O)*; γGlu = O=C(O)[C@H](CCC(=O)[*:2])N[*:1]; NMeI = CC[C@H](C)[C@H](NC)C(=O)O; Sar = CNCC(=O)O

What was measured:
[1] = Solubility assessment (turbidity absorbance at 325 nm); format: physicochemical; conditions: stock 2 mg/ml diluted 1:1, ambient temperature (typically 25°C), n=1; for Solubility, Acetate buffer pH 4: 100 mM acetate buffer pH 4.0; for Solubility, Acetate buffer pH 5: 100 mM acetate buffer pH 5.0; for Solubility, Histidine buffer pH 6: 100 mM histidine buffer pH 6.0; for Solubility, Histidine buffer pH 7: 100 mM histidine buffer pH 7.0; for Solubility, Phosphate buffer pH 6: 100 mM phosphate buffer pH 6.0; for Solubility, Phosphate buffer pH 7: 100 mM phosphate buffer pH 7.0; for Solubility, Phosphate buffer pH 7.5: 100 mM phosphate buffer pH7.5
How it was run: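 Peptide stock (2 mg/ml) in water acidified to pH 2.5 with HCl was diluted 1:1 into 100 mM acetate (pH 4.0, 5.0), histidine (pH 6.0, 7.0) or phosphate (pH 6.0, 7.0, 7.5) buffer. A280 and A325 were read at about 25°C, n=1. A325 ≤ 0.02 meant solubility ≥ 1 mg/ml.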

[2] = biological target: T1, human amylin receptor 3 (hAMYR3) consisting of hCTR2 co-expressed with human Receptor Activity Modifying Protein 3 (hRAMP3) (Homo sapiens, UniProt O60896+P30988); experiment: hAMYR3 assay: induction of cAMP (AlphaScreen cAMP Assay kit) in COS7 cells expressing hAMYR3; format: cell-based; conditions: cAMP induction in COS7 cells expressing hAMYR3; average of a minimum of 3 determinations; read-out: hAMY R3 EC50
T1 construct: expressed in transfected cells
T1 sequence (P30988 25-474): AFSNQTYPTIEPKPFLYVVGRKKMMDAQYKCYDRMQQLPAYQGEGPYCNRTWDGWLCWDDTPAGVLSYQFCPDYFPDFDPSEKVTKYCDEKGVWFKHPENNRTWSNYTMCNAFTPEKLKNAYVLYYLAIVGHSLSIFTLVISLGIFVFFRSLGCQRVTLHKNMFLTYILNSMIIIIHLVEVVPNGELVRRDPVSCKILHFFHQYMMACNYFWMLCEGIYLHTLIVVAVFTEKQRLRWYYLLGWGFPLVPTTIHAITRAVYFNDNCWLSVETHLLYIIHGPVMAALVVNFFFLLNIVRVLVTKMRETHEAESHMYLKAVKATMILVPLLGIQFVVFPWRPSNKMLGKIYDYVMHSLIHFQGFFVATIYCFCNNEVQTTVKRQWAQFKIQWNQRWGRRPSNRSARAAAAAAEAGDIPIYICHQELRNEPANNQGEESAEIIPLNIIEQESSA
T1 sequence (O60896 24-148 partner): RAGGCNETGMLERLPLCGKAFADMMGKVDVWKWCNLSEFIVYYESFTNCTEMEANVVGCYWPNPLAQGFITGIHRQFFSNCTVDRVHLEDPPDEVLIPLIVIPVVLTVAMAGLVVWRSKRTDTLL
How it was run: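 Stable COS7 clone co-expressing hCTR2 and hRAMP3, stimulated 15 min at 37° C with increasing peptide in Tyrode buffer pH 7.4 with 100 µM IBMX and 0.1% casein. cAMP measured by AlphaScreen after lysis; EC50 and % efficacy versus pramlintide from 4PL fit.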

[3] = biological target: T2, human calcitonin receptor (hCTR2) (Homo sapiens, UniProt P30988); experiment: hCTR2 assay: induction of cAMP (AlphaScreen cAMP Assay kit) in COS7 cells expressing hCTR2; format: cell-based; conditions: cAMP induction in COS7 cells expressing hCTR2; average of a minimum of 3 determinations; read-out: hCTR2 EC50
T2 construct: expressed in transfected cells
T2 sequence (P30988 25-474): T1 sequence (P30988 25-474)
How it was run: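 Functional agonism is measured as cAMP accumulation in a COS7 line stably transfected with hCTR2, lacking endogenous RAMPs. Peptides act for 15 min at 37° C with IBMX present, and curves are fitted with a 4-parameter logistic model.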

SMILES | Solubility, Acetate buffer pH 4 [1] | Solubility, Acetate buffer pH 5 [1] | Solubility, Histidine buffer pH 6 [1] | Solubility, Histidine buffer pH 7 [1] | Solubility, Phosphate buffer pH 6 [1] | Solubility, Phosphate buffer pH 7 [1] | Solubility, Phosphate buffer pH 7.5 [1] | EC50 [2] [nM] | EC50 [3] [nM]
CC[C@H](C)[C@@H](C(=O)N[C@@H](CC(C)C)C(=O)N[C@@H](CO)C(=O)N[C@@H](CO)C(=O)N[C@H](C(=O)N[C@@H](CC(=O)O)C(=O)N[C@H](C(=O)NCC(=O)N[C@@H](CO)C(=O)N[C@@H](CC(=O)O)C(=O)N[C@H](C(=O)N1CCC[C@H]1C(N)=O)[C@@H](C)O)C(C)C)[C@@H](C)O)N(C)C(=O)[C@H](C)NC(=O)CN(C)C(=O)[C@H](Cc1ccccc1)NC(=O)[C@H](CO)NC(=O)[C@H](CO)NC(=O)[C@H](CO)NC(=O)[C@H](CO)NC(=O)[C@H](CCCNC(=N)N)NC(=O)[C@H](Cc1c[nH]cn1)NC(=O)[C@H](CC(C)C)NC(=O)[C@H](Cc1ccccc1)NC(=O)[C@H](CCC(=O)O)NC(=O)[C@H](C)NC(=O)[C@H](CC(C)C)NC(=O)[C@H](CCCNC(=N)N)NC(=O)[C@H](CCC(=O)O)NC(=O)[C@@H](NC(=O)[C@H](C)NC(=O)[C@@H]1CSSC[C@H](NC(=O)[C@H](CCCCN)NC(=O)[C@H](CCCCN)NC(=O)CC[C@H](NC(=O)CCCCCCCCCCCCCCCCCCC(=O)O)C(=O)O)C(=O)N[C@@H](CC(N)=O)C(=O)N[C@@H]([C@@H](C)O)C(=O)N[C@@H](C)C(=O)N[C@@H]([C@@H](C)O)C(=O)N1)[C@@H](C)O [Compound 159, [19CD]-isoGlu-KKC()NTATC()ATERLAEFLHRSSSSF-Gly(Me)-A-Ile(Me)-LSSTDVGSDTP-NH2] ({C20 diacid-γGlu}-KKCNTATCATERLAEFLHRSSSSF[Sar]A[NMeI]LSSTDVGSDTP-NH2; disulfide 3-8) | SS (SS indicates solubility ≥ 1mg/ml) | SS (SS indicates solubility ≥ 1mg/ml) | SS (SS indicates solubility ≥ 1mg/ml) | SS (SS indicates solubility ≥ 1mg/ml) | SS (SS indicates solubility ≥ 1mg/ml) | SS (SS indicates solubility ≥ 1mg/ml) | SS (SS indicates solubility ≥ 1mg/ml) | 0.14 | 0.1
CC[C@H](C)[C@@H](C(=O)N[C@@H](CC(C)C)C(=O)N[C@@H](CO)C(=O)N[C@@H](CO)C(=O)N[C@H](C(=O)N[C@@H](CC(=O)O)C(=O)N[C@H](C(=O)NCC(=O)N[C@@H](CO)C(=O)N[C@@H](CC(=O)O)C(=O)N[C@H](C(=O)N1CCC[C@H]1C(N)=O)[C@@H](C)O)C(C)C)[C@@H](C)O)N(C)C(=O)[C@H](C)NC(=O)CN(C)C(=O)[C@H](Cc1ccccc1)NC(=O)[C@H](CO)NC(=O)[C@H](CO)NC(=O)[C@H](CO)NC(=O)[C@H](CO)NC(=O)[C@H](CCCNC(=N)N)NC(=O)[C@H](Cc1c[nH]cn1)NC(=O)[C@H](CC(C)C)NC(=O)[C@H](Cc1ccccc1)NC(=O)[C@H](CCC(=O)O)NC(=O)[C@H](C)NC(=O)[C@H](CC(C)C)NC(=O)[C@H](CCCNC(=N)N)NC(=O)[C@H](CCC(=O)O)NC(=O)[C@@H](NC(=O)[C@H](C)NC(=O)[C@@H]1CSSC[C@H](NC(=O)[C@H](CCCNC(=N)N)NC(=O)CC[C@H](NC(=O)CCCCCCCCCCCCCCCCCCC(=O)O)C(=O)O)C(=O)N[C@@H](CC(N)=O)C(=O)N[C@@H]([C@@H](C)O)C(=O)N[C@@H](C)C(=O)N[C@@H]([C@@H](C)O)C(=O)N1)[C@@H](C)O [Compound 160, [19CD]-isoGlu-RC()NTATC()ATERLAEFLHRSSSSF-Gly(Me)-A-Ile(Me)-LSSTDVGSDTP-NH2] ({C20 diacid-γGlu}-RCNTATCATERLAEFLHRSSSSF[Sar]A[NMeI]LSSTDVGSDTP-NH2; disulfide 2-7) | SS (SS indicates solubility ≥ 1mg/ml) | SS (SS indicates solubility ≥ 1mg/ml) | SS (SS indicates solubility ≥ 1mg/ml) | SS (SS indicates solubility ≥ 1mg/ml) | SS (SS indicates solubility ≥ 1mg/ml) | SS (SS indicates solubility ≥ 1mg/ml) | SS (SS indicates solubility ≥ 1mg/ml) | 0.14 | 0.13
CC[C@H](C)[C@@H](C(=O)N[C@@H](CC(C)C)C(=O)N[C@@H](CO)C(=O)N[C@@H](CO)C(=O)N[C@H](C(=O)N[C@@H](CCC(=O)O)C(=O)N[C@H](C(=O)NCC(=O)N[C@@H](CO)C(=O)N[C@@H](CCC(=O)O)C(=O)N[C@H](C(=O)N1CCC[C@H]1C(N)=O)[C@@H](C)O)C(C)C)[C@@H](C)O)N(C)C(=O)[C@H](C)NC(=O)CN(C)C(=O)[C@H](Cc1ccccc1)NC(=O)[C@H](CO)NC(=O)[C@H](CO)NC(=O)[C@H](CO)NC(=O)[C@H](CO)NC(=O)[C@H](CCCNC(=N)N)NC(=O)[C@H](Cc1c[nH]cn1)NC(=O)[C@H](CC(C)C)NC(=O)[C@H](Cc1ccccc1)NC(=O)[C@H](CCC(=O)O)NC(=O)[C@H](C)NC(=O)[C@H](CC(C)C)NC(=O)[C@H](CCCNC(=N)N)NC(=O)[C@H](CCC(=O)O)NC(=O)[C@@H](NC(=O)[C@H](C)NC(=O)[C@@H]1CSSC[C@H](NC(=O)[C@H](CCCCN)NC(=O)[C@H](CCCCN)NC(=O)CC[C@H](NC(=O)CCCCCCCCCCCCCCCCCCC(=O)O)C(=O)O)C(=O)N[C@@H](CCC(=O)O)C(=O)N[C@@H]([C@@H](C)O)C(=O)N[C@@H](C)C(=O)N[C@@H]([C@@H](C)O)C(=O)N1)[C@@H](C)O [Compound 163, [19CD]-isoGlu-KKC()ETATC()ATERLAEFLHRSSSSF-Gly(Me)-A-Ile(Me)-LSSTEVGSETP-NH2] ({C20 diacid-γGlu}-KKCETATCATERLAEFLHRSSSSF[Sar]A[NMeI]LSSTEVGSETP-NH2; disulfide 3-8) | SS (SS indicates solubility ≥ 1mg/ml) | SS (SS indicates solubility ≥ 1mg/ml) | SS (SS indicates solubility ≥ 1mg/ml) | SS (SS indicates solubility ≥ 1mg/ml) | SS (SS indicates solubility ≥ 1mg/ml) | II (II indicates solubility ≤ 1 mg/ml) | SS (SS indicates solubility ≥ 1mg/ml) | 0.74 | 0.42
